Measurements reported in publication PMC2776708 (Bioorganic & medicinal chemistry letters, 2009).
Where two headings read alike, the source gives them in different places.

Experiments:
WNV NS2B-NS3 proteinase [1] = target: T1, WNV NS2B-NS3 proteinase (West Nile virus, UniProt Q9Q6P4); assay: WNV NS2B-NS3 proteinase activity assay with Pyr-RTKR-AMC fluorogenic substrate; assay type: biochemical; details: for inhibitory activity (in words): qualitative statement
Stability = assay type: physicochemical; details: qualitative statement
WNV NS2B-NS3 proteinase [2] = target: T1, WNV NS2B-NS3 proteinase; assay: Stability in the in vitro assay buffer with WNV NS2B-NS3 proteinase; details: Figure 2
[3] = Stability in the in vitro assay buffer without enzyme; assay type: physicochemical; details: absence of enzyme, Figure 2
WNV NS2B-NS3 proteinase [4] = target: T1, WNV NS2B-NS3 proteinase; details: products of ester hydrolysis; cited from earlier work

T1 sequence (Q9Q6P4 1506-1683): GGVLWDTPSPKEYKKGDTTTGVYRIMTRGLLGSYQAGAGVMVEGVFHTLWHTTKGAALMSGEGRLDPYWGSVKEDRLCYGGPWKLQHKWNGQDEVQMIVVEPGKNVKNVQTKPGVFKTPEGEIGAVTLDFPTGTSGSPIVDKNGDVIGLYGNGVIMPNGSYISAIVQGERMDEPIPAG
T1 sequence (Q9Q6P4 1375-1505): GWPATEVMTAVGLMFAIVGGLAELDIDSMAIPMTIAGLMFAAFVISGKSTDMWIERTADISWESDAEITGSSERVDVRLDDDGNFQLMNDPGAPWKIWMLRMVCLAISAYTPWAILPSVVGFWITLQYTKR

COc1ccc(S(=O)(=O)n2nc(OC(=O)c3ccccc3)cc2N)cc1 [Compound 1]
IC50 (WNV NS2B-NS3 proteinase [1]): 0.105 µM

COc1ccc(S(=O)(=O)n2nc(OC(=O)c3cccs3)cc2N)cc1 [Compound 2]
IC50 (WNV NS2B-NS3 proteinase [1]): 0.11 µM

COc1ccc(S(=O)(=O)n2nc(OC(=O)c3c(F)cccc3F)cc2N)cc1 [Compound 7a]
stability in pH 8 buffer (in words) (Stability): significantly more stable

COc1ccc(S(=O)(=O)n2nc(OC(=O)c3ccc(F)cc3F)cc2N)cc1 [Compound 7e]
stability in presence of enzyme (in words) (WNV NS2B-NS3 proteinase [2]): degraded rapidly | stability in assay buffer (in words) [3]: relatively stable

COc1ccc(S(=O)(=O)n2nc(OC(=O)c3ccccc3C)cc2N)cc1 [Compound 7f]
inhibitory activity (in words) (WNV NS2B-NS3 proteinase [1]): retained its micromolar inhibitory activity

COc1ccc(S(=O)(=O)n2nc(OC(=O)c3c(Cl)cccc3Cl)cc2N)cc1 [Compound 7n]
IC50 (WNV NS2B-NS3 proteinase [1]): > 100 µM | inhibitory activity (in words) (WNV NS2B-NS3 proteinase [1]): complete loss of activity

COc1ccc(S(=O)(=O)n2nc(OC(=O)c3ccccc3OC)cc2N)cc1 [Compound 7o]
inhibitory activity (in words) (WNV NS2B-NS3 proteinase [1]): inactive

COc1ccc(S(=O)(=O)n2nc(OC(=O)c3ccccc3[N+](=O)[O-])cc2N)cc1 [Compound 7p]
IC50 (WNV NS2B-NS3 proteinase [1]): > 100 µM | inhibitory activity (in words) (WNV NS2B-NS3 proteinase [1]): inactive

COc1ccc(Cn2nc(C)cc2O)cc1 [Compound 8, 1-(4-methoxybenzyl)-3-methyl-1H-pyrazol-5-ol]
IC50 (WNV NS2B-NS3 proteinase [4]): > 100 µM

COc1ccc(Cn2nc(C)cc2OC(=O)c2ccccc2)cc1 [Compound 10a]
stability in presence of enzyme (in words) (WNV NS2B-NS3 proteinase [2]): approximately the same in the presence or absence of the enzyme | stability in pH 8 buffer (in words) (Stability): significantly more stable

COc1ccc(Cn2nc(C)cc2CC(O)c2ccccc2)cc1 (stereo not shown) [Compound 12a]
IC50 (WNV NS2B-NS3 proteinase [1]): > 100 µM

COc1ccc(Cn2nc(C)cc2CC(O)c2c(F)cccc2F)cc1 (stereo not shown) [Compound 12b]
IC50 (WNV NS2B-NS3 proteinase [1]): > 100 µM

COc1ccc(Cn2nc(C)cc2CC(=O)c2ccccc2)cc1 [Compound 13a]
IC50 (WNV NS2B-NS3 proteinase [1]): > 100 µM

COc1ccc(Cn2nc(C)cc2/C=C/c2c(F)cccc2F)cc1 [Compound 14]
stability in pH 8 buffer (in words) (Stability): highly stable

Cc1cc(NC(=O)c2ccccc2)n(-c2ccccc2)n1 [Compound 15]
stability in pH 8 buffer (in words) (Stability): highly stable
